Measured values taken from patent US10927123B2, “Modulators of the beta-3 adrenergic receptor useful for the treatment or prevention of disorders related thereto” (Arena Pharmaceuticals, Inc., priority 2016, dated 2021).
pIC50: −log10 of the molar value.

Target: Beta-3 Adrenergic Receptor (Homo sapiens (Human), UniProt P13945)
Test: HTRF cAMP antagonist assay (IC50 determination)
Format: cell-based
Settings: CHO-K1 cells stably expressing recombinant receptor; antagonism of isoproterenol at EC90; cAMP readout
Summary of the method: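 In this functional readout, recombinant CHO-K1 cells received compound, then isoproterenol at its EC90. After 1 h at room temperature, cAMP levels were determined by HTRF using an on-plate standard curve, and IC50 values were fitted.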

Chain of Beta-3 Adrenergic Receptor (P13945 whole entry, species assumed): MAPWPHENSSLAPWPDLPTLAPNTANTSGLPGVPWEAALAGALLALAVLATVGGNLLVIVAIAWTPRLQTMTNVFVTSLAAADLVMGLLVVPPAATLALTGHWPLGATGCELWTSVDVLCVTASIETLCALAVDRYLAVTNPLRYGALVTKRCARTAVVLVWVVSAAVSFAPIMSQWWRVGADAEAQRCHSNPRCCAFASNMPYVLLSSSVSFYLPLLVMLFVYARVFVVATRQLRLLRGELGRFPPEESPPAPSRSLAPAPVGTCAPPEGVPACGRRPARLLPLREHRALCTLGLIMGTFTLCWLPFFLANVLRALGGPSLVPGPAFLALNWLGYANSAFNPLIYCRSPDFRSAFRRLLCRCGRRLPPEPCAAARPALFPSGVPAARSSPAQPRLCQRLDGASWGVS

Row | pIC50 | Structure (SMILES)
1 | 7.66 | CCn1cc(S(=O)(=O)N2CCC3(CC2)C[C@@H](NC[C@H](O)COc2cccc(S(C)(=O)=O)c2)CO3)c(=O)c2cccc(F)c21 [Compound 322, 1-ethyl-8-fluoro-3-((R)-3-((S)-2-hydroxy-3-(3-(methylsulfonyl)phenoxy)propylamino)-1-oxa-8-azaspiro[4.5]decan-8-ylsulfonyl)quinolin-4(1H)-one]
2 | 7.82 | CC(F)S(=O)(=O)c1cccc(OC[C@@H](O)CN[C@H]2COC3(CCN(S(=O)(=O)c4cnc5c(c4)N(C)CCO5)CC3)C2)c1 (stereo partly drawn) [Compound 235, (2S)-1-(3-(1-fluoroethylsulfonyl)phenoxy)-3-((R)-8-(1-methyl-2,3-dihydro-1H-pyrido[2,3-b][1,4]oxazin-7-ylsulfonyl)-1-oxa-8-azaspiro[4.5]decan-3-ylamino)propan-2-ol]
3 | 7.21 | Cc1c(S(=O)(=O)N2CCC3(CC2)C[C@@H](NC[C@H](O)COc2cccc(S(=O)(=O)C4CC4)c2)CO3)cnc2c1N(C)CCO2 [Compound 275, (S)-1-(3-(cyclopropylsulfonyl)phenoxy)-3-((R)-8-(1,8-dimethyl-2,3-dihydro-1H-pyrido[2,3-b][1,4]oxazin-7-ylsulfonyl)-1-oxa-8-azaspiro[4.5]decan-3-ylamino)propan-2-ol]
4 | 7.46 | COc1ccc(S(=O)(=O)N2CCC3(CC2)C[C@@H](NC[C@H](O)COc2cccc(S(=O)(=O)C4(CO)CC4)c2)CO3)cc1-c1ccc(CN)cc1 [Compound 208, (S)-1-((R)-8-(4′-(aminomethyl)-6-methoxybiphenyl-3-ylsulfonyl)-1-oxa-8-azaspiro[4.5]decan-3-ylamino)-3-(3-(1-(hydroxymethyl)cyclopropylsulfonyl)phenoxy)propan-2-ol]
5 | 7.61 | CN1CCOc2ncc(S(=O)(=O)N3CCC4(CC3)C[C@@H](NC[C@H](O)COc3cccc(S(=O)(=O)C(F)(F)CO)c3)CO4)cc21 [Compound 156, (S)-1-(3-(1,1-difluoro-2-hydroxyethylsulfonyl)phenoxy)-3-((R)-8-(1-methyl-2,3-dihydro-1H-pyrido[2,3-b][1,4]oxazin-7-ylsulfonyl)-1-oxa-8-azaspiro[4.5]decan-3-ylamino)propan-2-ol]
6 | 7.35 | CCn1cc(S(=O)(=O)N2CCC3(CC2)C[C@@H](NC[C@H](O)COc2cccc(S(=O)(=O)C(C)F)c2)CO3)c(=O)c2ccccc21 (stereo partly drawn) [Compound 299, 1-ethyl-3-((3R)-3-((2S)-3-(3-(1-fluoroethylsulfonyl)phenoxy)-2-hydroxypropylamino)-1-oxa-8-azaspiro[4.5]decan-8-ylsulfonyl)quinolin-4(1H)-one]
7 | 7.73 | CC(C)S(=O)(=O)c1cccc(OC[C@@H](O)CN[C@H]2COC3(CCN(S(=O)(=O)c4cnc5c(c4)N(C)CCO5)CC3)C2)c1 [Compound 153, (S)-1-(3-(isopropylsulfonyl)phenoxy)-3-((R)-8-(1-methyl-2,3-dihydro-1H-pyrido[2,3-b][1,4]oxazin-7-ylsulfonyl)-1-oxa-8-azaspiro[4.5]decan-3-ylamino)propan-2-ol]
8 | 7.94 | COc1cc(-c2ccc(CN)cc2)cc(S(=O)(=O)N2CCC3(CC2)C[C@H](NC[C@H](O)COc2cccc(S(=O)(=O)C4CC4)c2)CO3)c1 [Compound 229, (S)-1-((S)-8-(4′-(aminomethyl)-5-methoxybiphenyl-3-ylsulfonyl)-1-oxa-8-azaspiro[4.5]decan-3-ylamino)-3-(3-(cyclopropylsulfonyl)phenoxy)propan-2-ol]
9 | 7.16 | COCCN1CCOc2ncc(S(=O)(=O)N3CCC4(CC3)C[C@@H](NC[C@H](O)COc3cccc(S(=O)(=O)C5CC5)c3)CO4)cc21 [Compound 304, (S)-1-(3-(cyclopropylsulfonyl)phenoxy)-3-((R)-8-(1-(2-methoxyethyl)-2,3-dihydro-1H-pyrido[2,3-b][1,4]oxazin-7-ylsulfonyl)-1-oxa-8-azaspiro[4.5]decan-3-ylamino)propan-2-ol]
10 | 7.75 | COc1ccc(S(=O)(=O)N2CCC3(CC2)C[C@H](NC[C@H](O)COc2cccc(S(=O)(=O)C4CC4)c2)CO3)cc1-c1ccc(CN)cc1 [Compound 227, (S)-1-((S)-8-(4′-(aminomethyl)-6-methoxybiphenyl-3-ylsulfonyl)-1-oxa-8-azaspiro[4.5]decan-3-ylamino)-3-(3-(cyclopropylsulfonyl)phenoxy)propan-2-ol]
11 | 7.53 | CCOc1ccc(-c2ccc(C3(N)CC3)cc2)cc1S(=O)(=O)N1CCC2(CC1)C[C@H](NC[C@H](O)COc1cccc(S(=O)(=O)C3CC3)c1)CO2 [Compound 252]

Second part, the molecule before the results:

Row | Structure (SMILES) | pIC50
12 | CCNCc1ccc(-c2cccc(S(=O)(=O)N3CCC4(CC3)CC(NC[C@H](O)COc3cccc(S(C)(=O)=O)c3)CO4)c2)cc1 (stereo partly drawn) [Compound 79, (2S)-1-(8-(4′-((ethylamino)methyl)biphenyl-3-ylsulfonyl)-1-oxa-8-azaspiro[4.5]decan-3-ylamino)-3-(3-(methylsulfonyl)phenoxy)propan-2-ol] | 7.37
13 | O=S(=O)(c1ccc2ncccc2c1)N1CCC2(CC1)C[C@@H](NC[C@H](O)COc1cccc(S(=O)(=O)C3(CO)CC3)c1)CO2 [Compound 147, (S)-1-(3-(1-(hydroxymethyl)cyclopropylsulfonyl)phenoxy)-3-((R)-8-(quinolin-6-ylsulfonyl)-1-oxa-8-azaspiro[4.5]decan-3-ylamino)propan-2-ol] | 7.27
14 | O=S(=O)(CCCO)c1cccc(OC[C@@H](O)CN[C@H]2COC3(CCN(S(=O)(=O)c4cnc5ccccc5c4)CC3)C2)c1 [Compound 135, 3-(3-((S)-2-hydroxy-3-((R)-8-(quinolin-3-ylsulfonyl)-1-oxa-8-azaspiro[4.5]decan-3-ylamino)propoxy)phenylsulfonyl)propan-1-ol] | 7.05
15 | CS(=O)(=O)c1cccc(OC[C@@H](O)CNC2COC3(CCN(S(=O)(=O)c4ccc5[nH]cnc5c4)CC3)C2)c1 (stereo partly drawn) [Compound 76, (2S)-1-(8-(1H-benzo[d]imidazol-5-ylsulfonyl)-1-oxa-8-azaspiro[4.5]decan-3-ylamino)-3-(3-(methylsulfonyl)phenoxy)propan-2-ol] | 7.44
16 | CCS(=O)(=O)c1cccc(OC[C@@H](O)CN[C@H]2COC3(CCN(S(=O)(=O)c4cnc5ccccc5c4)CC3)C2)c1 [Compound 122, (S)-1-(3-(ethylsulfonyl)phenoxy)-3-((R)-8-(quinolin-3-ylsulfonyl)-1-oxa-8-azaspiro[4.5]decan-3-ylamino)propan-2-ol] | 8.11
17 | CS(=O)(=O)c1cccc(OC[C@@H](O)CNC2COC3(CCN(C(=O)c4ccc5[nH]ccc5c4)CC3)C2)c1 (stereo partly drawn) [Compound 67, (3-((S)-2-hydroxy-3-(3-(methylsulfonyl)phenoxy)propylamino)-1-oxa-8-azaspiro[4.5]decan-8-yl)(1H-indol-5-yl)methanone] | 6.09
18 | O=S(=O)(c1cccc(OC[C@@H](O)CNC2COC3(CCN(S(=O)(=O)c4ccc5ccccc5c4)CC3)C2)c1)C1CNC1 (stereo partly drawn) [Compound 21, (2S)-1-(3-(azetidin-3-ylsulfonyl)phenoxy)-3-(8-(naphthalen-2-ylsulfonyl)-1-oxa-8-azaspiro[4.5]decan-3-ylamino)propan-2-ol] | 6.60
19 | CS(=O)(=O)c1cccc(OC[C@@H](O)CNC2COC3(CCN(S(=O)(=O)c4cc5ccccc5o4)CC3)C2)c1 (stereo partly drawn) [Compound 60, (2S)-1-(8-(benzofuran-2-ylsulfonyl)-1-oxa-8-azaspiro[4.5]decan-3-ylamino)-3-(3-(methylsulfonyl)phenoxy)propan-2-ol] | 7.76
20 | CS(=O)(=O)c1cccc(OC[C@@H](O)CNC2COC3(CCN(S(=O)(=O)c4ccc5cc(Cl)ccc5c4)CC3)C2)c1 (stereo partly drawn) [Compound 73, (2S)-1-(8-(6-chloronaphthalen-2-ylsulfonyl)-1-oxa-8-azaspiro[4.5]decan-3-ylamino)-3-(3-(methylsulfonyl)phenoxy)propan-2-ol] | 7.62
21 | NCc1ccc(-c2cncc(S(=O)(=O)N3CCC4(CC3)C[C@@H](NC[C@H](O)COc3cccc(S(=O)(=O)CCO)c3)CO4)c2)cc1 [Compound 89, (S)-1-((R)-8-(5-(4-(aminomethyl)phenyl)pyridin-3-ylsulfonyl)-1-oxa-8-azaspiro[4.5]decan-3-ylamino)-3-(3-(2-hydroxyethylsulfonyl)phenoxy)propan-2-ol] | 6.96
22 | CS(=O)(=O)c1cccc(OC[C@@H](O)CNC2COC3(CCN(S(=O)(=O)c4cccc(Cl)c4)CC3)C2)c1 (stereo partly drawn) [Compound 31, (2S)-1-(8-(3-chlorophenylsulfonyl)-1-oxa-8-azaspiro[4.5]decan-3-ylamino)-3-(3-(methylsulfonyl)phenoxy)propan-2-ol] | 7.31
23 | CCC(C)S(=O)(=O)c1cccc(OC[C@@H](O)CNC2COC3(CCN(S(=O)(=O)c4ccc5ccccc5c4)CC3)C2)c1 (stereo partly drawn) [Compound 25, (2S)-1-(3-(sec-butylsulfonyl)phenoxy)-3-(8-(naphthalen-2-ylsulfonyl)-1-oxa-8-azaspiro[4.5]decan-3-ylamino)propan-2-ol] | 7.26
24 | CCS(=O)(=O)c1cccc(OC[C@@H](O)CN[C@@H]2COC3(CCN(S(=O)(=O)c4ccc5ccccc5c4)CC3)C2)c1 [Compound 27, (S)-1-(3-(ethylsulfonyl)phenoxy)-3-((S)-8-(naphthalen-2-ylsulfonyl)-1-oxa-8-azaspiro[4.5]decan-3-ylamino)propan-2-ol] | 7.71
25 | O=S(=O)(CCO)c1cccc(OC[C@@H](O)CN[C@H]2COC3(CCN(S(=O)(=O)c4ccc(-c5ccccn5)cc4)CC3)C2)c1 [Compound 102, (S)-1-(3-(2-hydroxyethylsulfonyl)phenoxy)-3-((R)-8-(4-(pyridin-2-yl)phenylsulfonyl)-1-oxa-8-azaspiro[4.5]decan-3-ylamino)propan-2-ol] | 6.94
26 | CS(=O)(=O)c1cccc(OC[C@@H](O)CNC2COC3(CCN(C(=O)c4ccc5cc[nH]c5c4)CC3)C2)c1 (stereo partly drawn) [Compound 68, (3-((S)-2-hydroxy-3-(3-(methylsulfonyl)phenoxy)propylamino)-1-oxa-8-azaspiro[4.5]decan-8-yl)(1H-indol-6-yl)methanone] | 6.31
